Reference: US20230219927A1, “AKT3 MODULATORS” (Georgiamune LLC, priority 2020, published 2023)

How the values were obtained:
Akt3 [1] = target: T1, Akt3 (Homo sapiens, UniProt Q9Y243); assay: Akt3 activation activity of selected compounds; assay type: cell-based; conditions: Table 2
T1 construct: endogenous in cells; host or cells: primary human CD4+/CD45RA+/CD25- naive T cells
Procedure: (§1) Human CD4+/CD45RA+/CD25-naïve T cells were plated under induction conditions (IL-2/anti-CD3/anti-CD28+TGFβ) in the absence or presence of compounds for 72 hours. To determine the compounds' specificity for each phospho-AKT isoform, phospho-AKT cellular HTRF kits (Cisbio catalogue numbers 63ADK078PEG (pAKT1), 63ADK080PEG (p-AKT2), and 63ADK082PEG (pAKT3)) were used according to manufacturer specifications. Briefly, after removal of the supernatant, cells were lysed, and total protein concentration measured and normalized for all samples. The cell lysates were transferred into 384-well plates and Eu Cryptate antibody+d2 antibody mixture was added. This process was the same for each isoform but utilized the corresponding isoform antibodies from each respective kit. Positive and negative controls (supplied with the kit) were incorporated into each experiment. The plates were incubated overnight. Data acquisition was performed on the Varioskan Lux reader utilizing the settings for the TRF fluorescence protocol. Data was presented as percent change over DMSO-treated controls. Each test condition was run in duplicate, and the assay was performed at least twice.

Akt3 [2] = target: T1, Akt3; assay: Akt3 inhibition activity of selected compounds; assay type: cell-based; conditions: Table 1
Procedure: as §1

T1 sequence (Q9Y243 whole entry): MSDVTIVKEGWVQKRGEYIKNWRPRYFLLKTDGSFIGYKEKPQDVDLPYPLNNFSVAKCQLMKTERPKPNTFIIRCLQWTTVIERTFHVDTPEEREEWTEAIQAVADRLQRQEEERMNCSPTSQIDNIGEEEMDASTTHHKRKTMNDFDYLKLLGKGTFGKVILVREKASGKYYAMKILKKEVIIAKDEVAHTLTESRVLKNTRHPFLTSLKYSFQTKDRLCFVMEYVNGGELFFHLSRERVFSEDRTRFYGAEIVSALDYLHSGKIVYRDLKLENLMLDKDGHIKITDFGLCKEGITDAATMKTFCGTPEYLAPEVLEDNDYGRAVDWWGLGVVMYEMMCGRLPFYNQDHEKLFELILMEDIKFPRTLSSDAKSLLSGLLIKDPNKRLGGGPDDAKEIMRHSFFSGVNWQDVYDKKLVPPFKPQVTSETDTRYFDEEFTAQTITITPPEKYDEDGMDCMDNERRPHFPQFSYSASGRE

CS(=O)(=O)c1ccc2nccc(Nc3cccc(C(=O)Nc4cccc(Nc5ccncc5)c4)c3)c2c1 [Compound 3, 3-((6-(methylsulfonyl)quinolin-4-yl)amino)-N-(3-(pyridin-4-ylamino)phenyl)benzamide]
IC50 (Akt3 [1]): < 5000 nM

C#Cc1ccc2nccc(Nc3cccc(C(=O)Nc4cccc(Nc5ccncc5)c4)c3)c2c1 [Compound 4, 3-((6-ethynylquinolin-4-yl)amino)-N-(3-(pyridin-4-ylamino)phenyl)benzamide]
IC50 (Akt3 [2]): < 1000 nM

[N-]=[N+]=Nc1ccc2nccc(Nc3cccc(C(=O)Nc4cccc(Nc5ccncc5)c4)c3)c2c1 [Compound 5, 3-((6-azidoquinolin-4-yl)amino)-N-(3-(pyridin-4-ylamino)phenyl)benzamide]
IC50 (Akt3 [2]): < 1000 nM

N#Cc1ccc2nccc(Nc3cccc(C(=O)Nc4cccc(Nc5ccncc5)c4)c3)c2c1 [Compound 6, 3-((6-cyanoquinolin-4-yl)amino)-N-(3-(pyridin-4-ylamino)phenyl)benzamide]
IC50 (Akt3 [1]): < 2000 nM

O=C(Nc1cccc(Oc2ccncc2)c1)c1cccc(Nc2ccnc3ccc(F)cc23)c1 [Compound 10, 3-((6-fluoroquinolin-4-yl)amino)-N-(3-(pyridin-4-yloxy)phenyl)benzamide]
IC50 (Akt3 [2]): < 500 nM

O=C(Nc1cccc(Nc2ccncc2)n1)c1cccc(Nc2ccnc3ccc(F)cc23)c1 [Compound 21, 3-((6-fluoroquinolin-4-yl)amino)-N-(6-(pyridin-4-ylamino)pyridin-2-yl)benzamide]
IC50 (Akt3 [2]): < 2000 nM

N#Cc1ccc2nccc(Nc3cccc(C(=O)Nc4cc(Nc5ccncc5)ccn4)c3)c2c1 [Compound 26, 3-((6-cyanoquinolin-4-yl)amino)-N-(4-(pyridin-4-ylamino)pyridin-2-yl)benzamide]
IC50 (Akt3 [1]): < 5000 nM

CN(C)c1ccc2nccc(Nc3cccc(C(=O)Nc4cccc(Nc5ccncc5)c4)c3)c2c1 [Compound 31, 3-((6-(dimethylamino)quinolin-4-yl)amino)-N-(3-(pyridin-4-ylamino)phenyl)benzamide]
IC50 (Akt3 [1]): < 1000 nM

O=C(Nc1cc(Nc2ccncc2)ccn1)c1cccc(Nc2ccnc3ccccc23)c1 [Compound 38, N-(4-(pyridin-4-ylamino)pyridin-2-yl)-3-(quinolin-4-ylamino)benzamide]
IC50 (Akt3 [2]): < 1000 nM

Cc1cc(Nc2cccc(NC(=O)c3cccc(Nc4ccnc5ccc(N(C)C)cc45)c3)c2)ccn1 [Compound 59, 3-((6-(dimethylamino)quinolin-4-yl)amino)-N-(3-((2-methylpyridin-4-yl)amino)phenyl)benzamide]
IC50 (Akt3 [1]): < 1000 nM

Cc1cc(Nc2ccnc(NC(=O)c3cccc(Nc4ccnc5ccc(N(C)C)cc45)c3)c2)ccn1 [Compound 61, 3-((6-(dimethylamino)quinolin-4-yl)amino)-N-(4-((2-methylpyridin-4-yl)amino)pyridin-2-yl)benzamide]
IC50 (Akt3 [1]): < 1000 nM

Cc1cc(Oc2cccc(NC(=O)c3cncc(Nc4ccnc5ccc(N(C)C)cc45)c3)c2)ccn1 [Compound 65, 5-((6-(dimethylamino)quinolin-4-yl)amino)-N-(3-((2-methylpyridin-4-yl)oxy)phenyl)nicotinamide]
IC50 (Akt3 [1]): < 2000 nM

O=C(c1cccc(Nc2ccnc3ccc(F)cc23)c1)N1CCc2c(Nc3ccncc3)cccc21 [Compound 67, (3-((6-fluoroquinolin-4-yl)amino)phenyl)(4-(pyridin-4-ylamino)indolin-1-yl)methanone]
IC50 (Akt3 [2]): < 2000 nM

O=C(Nc1cccc(Nc2ccccc2)c1)c1cccc(Nc2ccncc2)c1 [Compound 97, N-(3-(phenylamino)phenyl)-3-(pyridin-4-ylamino)benzamide]
IC50 (Akt3 [2]): < 5000 nM

Cc1cc(Nc2cccc(C(=O)Nc3cccc(Nc4ccccc4)c3)c2)ccn1 [Compound 99, 3-((2-methylpyridin-4-yl)amino)-N-(3-(phenylamino)phenyl)benzamide]
IC50 (Akt3 [2]): < 2000 nM

N#Cc1ccc2nccc(Nc3cccc(-c4nc5ccc(Nc6ccncc6)nc5[nH]4)c3)c2c1 [Compound 106, 4-((3-(5-(pyridin-4-ylamino)-3H-imidazo[4,5-b]pyridin-2-yl)phenyl)amino)quinoline-6-carbonitrile]
IC50 (Akt3 [1]): < 2000 nM

O=C(Nc1cc(Oc2ccccc2)ccn1)c1cccc(Nc2ccncc2)c1 [Compound 107, N-(4-phenoxypyridin-2-yl)-3-(pyridin-4-ylamino)benzamide]
IC50 (Akt3 [2]): < 5000 nM

O=C(Nc1cccc(Nc2ccncc2)n1)c1cccc(Nc2ccncc2)c1 [Compound 108, 3-(pyridin-4-ylamino)-N-(6-(pyridin-4-ylamino)pyridin-2-yl)benzamide]
IC50 (Akt3 [2]): < 5000 nM

Cc1cc(Nc2cccc(C(=O)Nc3cccc(Nc4ccccc4)c3)c2)ccn1 [Compound 109, 3-((2-methylpyridin-4-yl)amino)-N-(3-(phenylamino)phenyl)benzamide]
IC50 (Akt3 [2]): < 1000 nM

O=C1c2ccc(Nc3ccncc3)cc2CN1c1cccc(Nc2ccncc2)c1 [Compound 110, 5-(pyridin-4-ylamino)-2-(3-(pyridin-4-ylamino)phenyl)isoindolin-1-one]
IC50 (Akt3 [2]): < 500 nM

N#Cc1nccc(Nc2cccc(NC(=O)c3cccc(Nc4ccnc5ccc(F)cc45)c3)c2)c1C(F)(F)F [Compound 112, N-(3-(2-cyano-3-(trifluoromethyl)pyridin-4-ylamino)phenyl)-3-(6-fluoroquinolin-4-ylamino)benzamide]
IC50 (Akt3 [2]): < 5000 nM

N#Cc1cc(Nc2cccc(NC(=O)c3cccc(Nc4ccnc5ccc(F)cc45)c3)c2)ccn1 [Compound 113, N-(3-(2-cyanopyridin-4-ylamino)phenyl)-3-(6-fluoroquinolin-4-ylamino)benzamide]
IC50 (Akt3 [2]): < 1000 nM

Cc1cc(Nc2ccc3c(c2)CN(c2cccc(Nc4ccncc4)c2)C3=O)ccn1 [Compound 114, 5-(2-methylpyridin-4-ylamino)-2-(3-(pyridin-4-ylamino)phenyl)isoindolin-1-one]
IC50 (Akt3 [2]): < 1000 nM

Cc1cc(Nc2ccc3c(c2)CN(c2cccc(Nc4cccc(F)c4)c2)C3=O)ccn1 [Compound 118, 2-(3-(3-fluorophenylamino)phenyl)-5-(2-methylpyridin-4-ylamino)isoindolin-1-one]
IC50 (Akt3 [2]): < 500 nM

Cc1nccc(Nc2ccc3c(c2)CN(c2cccc(Nc4ccncc4)c2)C3=O)c1Cl [Compound 119, 5-(3-chloro-2-methylpyridin-4-ylamino)-2-(3-(pyridin-4-ylamino)phenyl)isoindolin-1-one]
IC50 (Akt3 [2]): < 2000 nM

Cc1cc(Nc2ccc3c(c2)CN(c2cccc(Nc4ccc(F)cc4)c2)C3=O)ccn1 [Compound 120, 2-(3-(4-fluorophenylamino)phenyl)-5-(2-methylpyridin-4-ylamino)isoindolin-1-one]
IC50 (Akt3 [2]): < 100 nM

Cc1cc(Nc2cccc(C(=O)Nc3cc(Nc4ccncc4)ccn3)c2)cc(N)n1 [Compound 125, 3-(2-amino-6-methylpyridin-4-ylamino)-N-(4-(pyridin-4-ylamino)pyridin-2-yl)benzamide]
IC50 (Akt3 [2]): < 5000 nM

O=C(Nc1cc(Nc2ccncc2)ccn1)c1cccc(Nc2cccc3ncccc23)c1 [Compound 126, N-(4-(pyridin-4-ylamino)pyridin-2-yl)-3-(quinolin-5-ylamino)benzamide]
IC50 (Akt3 [2]): < 1000 nM

Cc1c(Nc2cccc(C(=O)Nc3cc(Nc4ccncc4)ccn3)c2)ccnc1N [Compound 127, 3-(2-amino-3-methylpyridin-4-ylamino)-N-(4-(pyridin-4-ylamino)pyridin-2-yl)benzamide]
IC50 (Akt3 [2]): < 5000 nM

Nc1cc(Nc2cccc(C(=O)Nc3cc(Nc4ccncc4)ccn3)c2)ccn1 [Compound 128, 3-(2-aminopyridin-4-ylamino)-N-(4-(pyridin-4-ylamino)pyridin-2-yl)benzamide]
IC50 (Akt3 [2]): < 5000 nM

Cc1c(Nc2cccc(C(=O)Nc3cccc(Nc4ccccc4)c3)c2)ccnc1N [Compound 129, 3-(2-amino-3-methylpyridin-4-ylamino)-N-(3-(phenylamino)phenyl)benzamide]
IC50 (Akt3 [2]): < 5000 nM

Nc1cc(Nc2cccc(C(=O)Nc3cccc(Nc4ccccc4)c3)c2)ccn1 [Compound 130, 3-(2-aminopyridin-4-ylamino)-N-(3-(phenylamino)phenyl)benzamide]
IC50 (Akt3 [2]): < 1000 nM

Cc1cc(Nc2cccc(C(=O)Nc3cccc(Nc4ccccc4)c3)c2)cc(N)n1 [Compound 131, 3-(2-amino-6-methylpyridin-4-ylamino)-N-(3-(phenylamino)phenyl)benzamide]
IC50 (Akt3 [2]): < 10000 nM

O=C1c2ccc(Nc3ccncc3)cc2CN1c1cccc(NC2CCCC2)c1 [Compound 132, 2-(3-(cyclopentylamino)phenyl)-5-(pyridin-4-ylamino)isoindolin-1-one]
IC50 (Akt3 [2]): < 1000 nM
